The text below walks through data of article PMC7503225, “Repositioning Dequalinium as Potent Muscarinic Allosteric Ligand by Combining Virtual Screening Campaigns and Experimental Binding Assays” (International Journal of Molecular Sciences, 2020).

For data set [1], the target named is T1, [3H]-NMS-occupied muscarinic hM1 subtype (Homo sapiens, UniProt P11229).
T1 sequence (P11229 1-460): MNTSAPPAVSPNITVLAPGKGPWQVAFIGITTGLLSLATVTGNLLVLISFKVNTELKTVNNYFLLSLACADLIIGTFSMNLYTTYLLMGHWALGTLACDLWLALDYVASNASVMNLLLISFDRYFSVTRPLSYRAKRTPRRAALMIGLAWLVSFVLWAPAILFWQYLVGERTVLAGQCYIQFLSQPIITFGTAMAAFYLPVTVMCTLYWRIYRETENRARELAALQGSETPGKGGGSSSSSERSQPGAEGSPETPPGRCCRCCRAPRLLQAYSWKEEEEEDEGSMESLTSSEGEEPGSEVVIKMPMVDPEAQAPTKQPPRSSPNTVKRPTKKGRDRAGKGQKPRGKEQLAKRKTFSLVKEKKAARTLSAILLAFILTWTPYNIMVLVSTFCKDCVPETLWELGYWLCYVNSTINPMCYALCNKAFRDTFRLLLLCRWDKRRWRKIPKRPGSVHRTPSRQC
Description: biochemical. The procedure:
(§1) All tested compounds were purchased from Merck KGaA (Darmstadt, Germany). The radioligand binding experiments were performed with membranes from Chinese Hamster Ovary (CHO) cells stably transfected with the five cloned human muscarinic receptor subtypes (hM1-5). Membrane fractions were prepared according to the protocol, which have been previously described; membranes were stored at −80 °C until use. Nonspecific binding was defined by the radioactivity bound in the presence of 10 µM atropine.
(§2) Off-rate assays were performed as described elsewhere to estimate the affinity of the ligands for the [^3H]-NMS-occupied receptor (log Kocc). Briefly, a high concentration of membranes (about 0.1 mg/mL) was incubated with a high concentration of [^3H]-NMS (2 nM) for 60 min at room temperature (mix membrane). Next, 100 µL aliquots were distributed into polypropylene tubes that were empty or in a final volume of 1 mL binding buffer with 1 µM atropine alone and in the presence of a range of concentrations of tested compound (1 nM–0.1 mM).
(§3) The effect on the radioligand dissociation of each tested ligand was determined at 0 min and at one time point, which was chosen to be ca 2.5 dissociation half-lives of [^3H]-NMS alone from each subtype receptors. Later (80 min for hM1, 20 min for hM2 and 70 min for hM5), the samples were filtered and counted as previously reported. Non specific binding was measured as previously reported.
(§4) All the results are expressed as means ± SEM obtained from 3-4 independent experiments each one performed in duplicate.

The target of a further data set is T2, hM2 muscarinic receptor (Homo sapiens, UniProt P08172).
T2 construct: expressed in transfected cells; host or cells: CHO cells, stably transfected; membrane fractions
T2 sequence (P08172 1-466): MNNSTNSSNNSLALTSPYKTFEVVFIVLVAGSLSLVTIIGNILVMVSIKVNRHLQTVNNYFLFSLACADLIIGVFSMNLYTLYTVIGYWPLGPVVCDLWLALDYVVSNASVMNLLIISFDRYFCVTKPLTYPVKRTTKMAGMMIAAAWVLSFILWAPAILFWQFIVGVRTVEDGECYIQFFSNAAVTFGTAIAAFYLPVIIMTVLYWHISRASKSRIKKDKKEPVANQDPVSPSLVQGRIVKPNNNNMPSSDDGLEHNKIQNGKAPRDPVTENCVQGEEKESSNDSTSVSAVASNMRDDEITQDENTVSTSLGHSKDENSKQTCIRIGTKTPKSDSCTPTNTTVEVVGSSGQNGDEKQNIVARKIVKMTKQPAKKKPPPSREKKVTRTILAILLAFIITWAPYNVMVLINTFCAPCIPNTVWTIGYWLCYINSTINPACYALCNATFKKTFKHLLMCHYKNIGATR
Put plainly: Equilibrium inhibition binding with [3H]-NMS, CHO cell membranes. The following applies: [3H]-NMS 0.2 nM, mean ± SEM of 3-4 experiments, read-out: pKi hM2 (converted). Summed up:
(§5)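 Membranes from CHO cells stably expressing the human subtype (25–70 µg/mL) incubated with [3H]-NMS for 2 h at room temperature, filtered and counted; nonspecific binding set with 10 µM atropine. IC50 from nonlinear fits converted to Ki; 3-4 independent experiments in duplicate.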

Another data set addresses T3, hM5 muscarinic receptor (Homo sapiens, UniProt P08912).
T3 construct: expressed in transfected cells; host or cells: CHO cells, stably transfected; membrane fractions
T3 sequence (P08912 1-532): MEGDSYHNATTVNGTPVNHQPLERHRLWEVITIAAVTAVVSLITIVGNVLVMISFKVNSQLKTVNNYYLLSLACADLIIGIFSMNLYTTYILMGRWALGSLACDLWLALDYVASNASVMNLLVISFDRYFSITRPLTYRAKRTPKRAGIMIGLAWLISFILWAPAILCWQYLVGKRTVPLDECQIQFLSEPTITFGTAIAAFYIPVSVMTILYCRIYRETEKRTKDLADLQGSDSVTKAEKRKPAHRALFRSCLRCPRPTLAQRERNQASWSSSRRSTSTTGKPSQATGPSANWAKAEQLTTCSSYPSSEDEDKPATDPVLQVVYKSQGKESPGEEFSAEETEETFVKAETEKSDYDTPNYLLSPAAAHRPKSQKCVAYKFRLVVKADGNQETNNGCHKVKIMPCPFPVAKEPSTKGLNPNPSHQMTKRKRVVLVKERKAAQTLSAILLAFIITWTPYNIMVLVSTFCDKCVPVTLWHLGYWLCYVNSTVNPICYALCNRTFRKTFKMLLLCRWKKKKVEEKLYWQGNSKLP
The data set is described as above. Particulars: [3H]-NMS 0.2 nM, CHO membranes, mean ± SEM of 3-4 experiments; read-out: pKi hM5 (converted). Summed up: as §5

In data set [2] the target is five human muscarinic receptors subtypes (hM1–hM5). Description: Equilibrium binding, summary statements over the five subtypes. The procedure:
as §1
Aliquots of membranes (25–70 µg/mL) were added and incubated for 2 h at room temperature, filtered through UniFilter GF/B plates (PerkinElmer Life and Analytical Science, Monza, Italy) using a FilterMate cell harvester (PerkinElmer Life and Analytical Science, Monza, Italy). The filters were washed several times with ice-cold MilliQ water. Then, the plates were counted in a β-counter (TopCount NXT microplate scintillation counter, PerkinElmer Life and Analytical Science, Monza, Italy).
Data points from radioligand inhibition binding curve were fitted to models using nonlinear regression equation to determine inhibitor potency (IC50) estimates, which were then converted to Ki values as appropriate.
as §4

The target of data set [3] is T4, [3H]-NMS-occupied muscarinic hM5 subtype (Homo sapiens, UniProt P08912).
T4 construct: expressed in transfected cells; host or cells: CHO cells, stably transfected; membrane fractions
T4 sequence (P08912 1-532): T3 sequence (P08912 1-532)
Put plainly: One point kinetic (off-rate) assay of [3H]-NMS dissociation. It is filed as binding. Particulars: read-out: log Kocc hM5 (converted). On the procedure:
as §1, §2, §3
Data from one-point kinetic experiments were analyzed in order to obtain estimates of the affinity of an allosteric ligand for the [^3H]-NMS occupied receptor (log Kocc) in a single step, using an equation introduced in GraphPad Prism 5.02 [33, 34].
as §4

The conditions of data set [4]: ref DrugBank [16]; cited from earlier work.
In data set [5] the target is T5, [3H]-NMS-occupied muscarinic hM2 subtype (Homo sapiens, UniProt P08172).
T5 construct: expressed in transfected cells; host or cells: CHO cells, stably transfected; membrane fractions
T5 sequence (P08172 1-466): T2 sequence (P08172 1-466)
Put plainly: One point kinetic (off-rate) assay of [3H]-NMS dissociation. It is filed as binding. On the procedure: as §1, §2, §3, §4

Turning to `Cc1cc(N)c2ccccc2[n+]1CCCCCCCCCC[n+]1c(C)cc(N)c2ccccc21` [dequalinium], the Kd in data set [1] is 204 nM; in data set [3] it was 3.31 µM; in data set [5] (read-out: Log Kocc hM2 (converted)) it was 19.1 nM. The Ki at hM2 muscarinic receptor is 661 nM; at hM5 muscarinic receptor, 158 nM. In data set [2], the “pKi values (muscarinic subtypes overall)” value is “greater than 7.0”. The logP in data set [4] is 0.2. In addition, the “selectivity ratio hM2/hM1” value in data set [5] (from log Kocc values) worked out at 10.7. Moreover, the “selectivity ratio hM2/hM5” value in data set [5] (from log Kocc values) is 174.
